Here are results for 3 molecules from patent publication US10011629B2, “Nucleoside analogs for treatment of the flaviviridae family of viruses and cancer” (Cocrystal Pharma, Inc., priority 2015, dated 2018).

Data set [1] deals with HCV 1b (Huh 7 Clone B cells containing HCV Replicon RNA). The data set is described as follows: HCV replicon assay. It is filed as cell-based. Particulars: Hepatitis C virus. On the procedure: Huh 7 Clone B cells containing HCV Replicon RNA were seeded in a 96-well plate at 5000 cells/well, and the compounds tested at 10 μM in triplicate immediately after seeding. Following five days incubation (37° C., 5% CO2), total cellular RNA was isolated by using versaGene RNA purification kit from Gentra. Replicon RNA and an internal control (TaqMan rRNA control reagents, Applied Biosystems) were amplified in a single step multiplex Real Time RT-PCR Assay. The antiviral effectiveness of the compounds was calculated by subtracting the threshold RT-PCR cycle of the test compound from the threshold RT-PCR cycle of the no-drug control (ΔCt HCV). A ΔCt of 3.3 equals a 1-log reduction (equal to 90% less starting material) in Replicon RNA levels. The cytotoxicity of the compounds was also calculated by using the ΔCt rRNA values. 2′-C-Me-C was used as the positive control. To determine EC90 and IC50 values^2, ΔCt: values were first converted into fraction of starting material^3 and then were used to calculate the % inhibition. […]
A general note: Replicon systems follow genome replication, usually without infectious particles.

Data set [2] relates to cellular rRNA (internal control, measure of cytotoxicity). Description: Cytotoxicity in HCV replicon assay (ΔCt rRNA). Type of data set: cell-based. The note with it: human. On the procedure:
(§1) Huh 7 Clone B cells containing HCV Replicon RNA were seeded in a 96-well plate at 5000 cells/well, and the compounds tested at 10 μM in triplicate immediately after seeding. Following five days incubation (37° C., 5% CO2), total cellular RNA was isolated by using versaGene RNA purification kit from Gentra. Replicon RNA and an internal control (TaqMan rRNA control reagents, Applied Biosystems) were amplified in a single step multiplex Real Time RT-PCR Assay. The antiviral effectiveness of the compounds was calculated by subtracting the threshold RT-PCR cycle of the test compound from the threshold RT-PCR cycle of the no-drug control (ΔCt HCV). A ΔCt of 3.3 equals a 1-log reduction (equal to 90% less starting material) in Replicon RNA levels. The cytotoxicity of the compounds was also calculated by using the ΔCt rRNA values. 2′-C-Me-C was used as the positive control. To determine EC90 and IC50 values^2, ΔCt: values were first converted into fraction of starting material^3 and then were used to calculate the % inhibition.

In data set [3] the test system is mitochondrial DNA (COXII gene) in HepG2 cells. The data set is described as follows: Mitochondrial DNA level in HepG2 cells (real-time PCR). As for the experimental part: This assay was used in all studies described in this application that determine the effect of compounds on mitochondrial DNA content. In this assay, low-passage-number HepG2 cells were seeded at 5,000 cells/well in collagen-coated 96-well plates. Test compounds were added to the medium to obtain final concentrations of 0 μM, 0.1 μM, 10 μM and 100 μM. […] The mitochondrial cytochrome c oxidase subunit II (COXII) gene and the ß-actin or rRNA gene were amplified from 5 μl of the eluted nucleic acids using a multiplex Q-PCR protocol with suitable primers and probes for both target and reference amplifications. […] For exon 3 of the ß-actin gene (GenBank accession number E01094) the sense, probe, and antisense primers are 5′-[…]-3′ (SEQ ID NO. 4), 5′-6-[…]-3′ (SEQ ID NO. 5) and 5′-[…]-3′ (SEQ ID NO. 6), respectively. The primers and probes for the rRNA gene are commercially available from Applied Biosystems. […] The arithmetic formula for this approach is given by 2-ΔΔCT, where ΔΔCT is (CT for average target test sample−CT for target control)−(CT for average reference test−CT for reference control) (see Johnson M R, K Wang, J B Smith, M J Heslin, R B Diasio. Quantitation of dihydropyrimidine dehydrogenase expression by real-time reverse transcription polymerase chain reaction. Anal. Biochem. 2000; 278:175-184). A decrease in mitochondrial DNA content in cells grown in the presence of drug indicated mitochondrial toxicity.

For data set [4], the system named is nuclear DNA (ß-actin or rRNA gene) in HepG2 cells. The data set is described as follows: Nuclear DNA level in HepG2 cells (real-time PCR). It is filed as cell-based, human. The note with it: Homo sapiens, HepG2, 336 h. On the procedure: This assay was used in all studies described in this application that determine the effect of compounds on mitochondrial DNA content. In this assay, low-passage-number HepG2 cells were seeded at 5,000 cells/well in collagen-coated 96-well plates. Test compounds were added to the medium to obtain final concentrations of 0 μM, 0.1 μM, 10 μM and 100 μM. […] The mitochondrial cytochrome c oxidase subunit II (COXII) gene and the ß-actin or rRNA gene were amplified from 5 μl of the eluted nucleic acids using a multiplex Q-PCR protocol with suitable primers and probes for both target and reference amplifications. […] For exon 3 of the ß-actin gene (GenBank accession number E01094) the sense, probe, and antisense primers are 5′-[…]-3′ (SEQ ID NO. 4), 5′-6-[…]-3′ (SEQ ID NO. 5) and 5′-[…]-3′ (SEQ ID NO. 6), respectively. The primers and probes for the rRNA gene are commercially available from Applied Biosystems. […] The comparative CT method uses arithmetic formulas in which the amount of target (COXII gene) is normalized to the amount of an endogenous reference (the B-actin or rRNA gene) and is relative to a calibrator (a control with no drug at day 7). The arithmetic formula for this approach is given by 2-ΔΔCT, where ΔΔCT is (CT for average target test sample−CT for target control)−(CT for average reference test−CT for reference control) (see Johnson M R, K Wang, J B Smith, M J Heslin, R B Diasio. Quantitation of dihydropyrimidine dehydrogenase expression by real-time reverse transcription polymerase chain reaction. Anal. Biochem. 2000; 278:175-184). A decrease in mitochondrial DNA content in cells grown in the presence of drug indicated mitochondrial toxicity.
Background: In qPCR the cycle at which signal appears reflects the starting amount.

Another data set concerns HepG2 cells. The data set is described as follows: Lactic acid production in HepG2 cells. It is filed as cell-based, human. Particulars: 14-day assay. As for the experimental part:
To measure the effects of the compounds on lactic acid production, HepG2 cells from a stock culture were diluted and plated in 12-well culture plates at 2.5×10^4 cells per well. […] […] The culture medium was then filtered, and the lactic acid content in the medium was determined using a colorimetric lactic acid assay (Sigma-Aldrich). Since lactic acid product can be considered a marker for impaired mitochondrial function, elevated levels of lactic acid production detected in cells grown in the presence of test compounds would indicate a drug-induced cytotoxic effect.

Data set [5] in a line: Assay for bone marrow cytotoxicity. Type of data set: cell-based, human. Particulars: human; organization LOBP; read-out: Bone marrow toxicity, CC50. As for the experimental part:
(§2) Primary human bone marrow mononuclear cells can be obtained commercially from Cambrex Bioscience (Walkersville, Md.). CFU-GM assays is carried out using a bilayer soft agar in the presence of 50 units/mL human recombinant granulocyte/macrophage colony-stimulating factor, while BFU-E assays used a […] matrix containing 1 unit/mL erythropoietin (see Sommadossi J P, Carlisle R. Toxicity of 3′-azido-3′-deoxythymidine and 9-(1,3-dihydroxy-2-propoxymethyl) guanine for normal human hepatopoietic progenitor cells in vitro. Antimicrob. Agents Chemother. 1987; 31: 452-454; Sommadossi, J P, Schinazi, R F, Chu, C K, and Xie, M Y. Comparison of cytotoxicity of the (−) and (+) enantiomer of 2′,3′-dideoxy-3′-thiacytidine in normal human bone marrow progenitor cells. Biochem. Pharmacol. 1992; 44:1921-1925). Each experiment can be performed in duplicate in cells from three different donors. AZT is used as a positive control. […] Statistical analysis can be performed with Student's t test for independent non-paired samples.

For data set [6], the system named is Primary human bone marrow mononuclear cells. The data set is described as follows: Assay for bone marrow cytotoxicity. The note with it: organization Stem cell; read-out: Bone marrow toxicity, CC50. Type of data set: cell-based. As for the experimental part: as §2
Data set [7] is described as follows: Cytotoxicity in HCV replicon assay (ΔCt rRNA). Type of data set: cell-based. The note with it: human; replicon cells; CC50; read-out: CC50 or % inhibit cytotoxicity. As for the experimental part:
as §1

A further data set deals with Huh-7 cells. Description: Cellular pharmacology in Huh7 cells (intracellular metabolites). On the procedure:
Ice-cold 70% methanol was used as the extraction solvent. ddATP (10 nM) was used as the internal standard.

For data set [8], the system named is Primary Human Hepatocytes. The data set is described as follows: Cellular egress from Primary Human Hepatocytes. The note with it: sofosbuvir pre-incubated 10 μM 12 h; time 48 hr. On the procedure:
FIGS. 6a and 6b are charts and tables showing cellular egress of Compound 9 (FIG. 6a) and sofosbuvir (FIG. 6b) from Primary Human Hepatocytes. The results are of freshly plated human hepatocytes ([…]) from a donor, where the cells were plated in 24-well plates. The compounds were pre-incubated at a concentration of 10 μM for 12 h, and cells were harvested at 0, 1, 2, 4, 10, 24 and 48 hours. The results for the monophosphate are shown in grey, for the diphosphate in orange, and for the triphosphate in blue.

[9] abbreviates: Homo sapiens, HepG2, read-out: % inhibition MitDNA.

The structures appear in SMILES notation. Entries after “also recorded” stand apart in the source; their conditions may differ. Read-outs that look alike come from different tables or passages of the source.

For orientation: inhibition means the change of the read-out against control, counted positive when it falls. With `Nc1ccn([C@@H]2O[C@H](CO)[C@@H](O)[C@@]2(F)Br)c(=O)n1` [Compound 15, 2′-Deoxy-2′-bromo-2′-fluoro Cytidine], the inhibition at 10 µM in data set [1] (Huh-7, HCV 1b replicon, 10 μM) amounted to 99.9%. Also, the inhibition at 5 days, 10 µM in [2] was 67.9%.
The term CC50 denotes the concentration that lowers cell viability or growth by half. In general, EC90 refers to the concentration at which the effect reaches the 90% level. As for `CC(C)OC(=O)[C@H](C)NP(=O)(OC[C@H]1O[C@@H](n2ccc(=O)[nH]c2=O)C(F)(Br)C1O)Oc1ccccc1` (stereo in doubt) [Compound 9], the “MitDNA Content (% of control)” value in data set [3] (HepG2 cells, 14-day assay, 10 μM, range in parentheses) is 187 (169-206) % of control. Further, the “MitDNA Content (% of control)” value in data set [3] (HepG2 cells, 14-day assay, 50 μM, range in parentheses) is 64 (45-91) % of control. Moreover, the “Summary (mitochondrial toxicity)” value in [3] (HepG2 cells, 14-day assay, mitochondrial/nuclear DNA and lactic acid) is on record as “non-toxic up to 10 μM; also recorded: not toxic up to 10 μM”. In data set [3] (setting [9]), the inhibition at 10 µM was under 1% and the inhibition at 50 µM came to 67.8%. Besides, in data set [4] (read-out: % inhibition nDNA), the inhibition at 10 µM amounted to 5.2% and the inhibition at 50 µM is 49.8%. Further, the “Lactic acid Production (% of control)” value with HepG2 cells (10 μM) is on record as 89.5 ± 2.0 % of control. In addition, in the data set with HepG2 cells (50 μM), the “Lactic acid Production (% of control)” value is given as 111 ± 38.5 % of control. Besides, the CC50 in [5] is over 100 µM. Also, in data set [6], the half-maximal cytotoxic concentration (CC50) is over 100 µM. Besides, in [1] (Huh-7, read-out: EC90 (μM or letter value) or % inhib HCV), the EC90 is 0.1 to 1 µM. In addition, in data set [7], the CC50 at 5 days is over 10 µM. Moreover, in the data set on Huh-7 cells (human), the “intracellular 7-DP” value worked out at 252 ± 14 pmol/10^6 cells, the “intracellular 7-MP” value came out at 12.4 ± 1.5 pmol/10^6 cells, the “intracellular 7-TP” value is 98.2 ± 2.2 pmol/10^6 cells and the “intracellular 9” value is on record as 318.4 ± 26.6 pmol/10^6 cells.
By IC50 is commonly meant the point on the concentration scale where inhibition reaches its midpoint. In general, EC50 refers to the concentration giving half of the maximal effect. In the case of `CC(C)OC(=O)[C@H](C)N[P@](=O)(OC[C@H]1O[C@@H](n2ccc(=O)[nH]c2=O)[C@](C)(F)[C@@H]1O)Oc1ccccc1` [Sofosbuvir, reference compound], the “Summary (mitochondrial toxicity)” value in data set [3] is recorded as “Slightly toxic”. Moreover, the results for the inhibition at 1 µM in data set [3] (setting [9]) and in [4] (read-out: % inhibition nDNA) were -12% and -98%, respectively. Moreover, the inhibition at 10 µM in data set [3] (setting [9]) was -18%; in data set [4] (read-out: % inhibition nDNA) it was -51%. Moreover, the inhibition at 50 µM stood at 87% in data set [3] (setting [9]) and 93% in [4] (read-out: % inhibition nDNA). In addition, the IC50 in data set [3] (Homo sapiens, HepG2, read-out: IC50 MitDNA, HepG2 cells, 14-day assay) came out at 36 µM; in data set [4] (read-out: IC50 nDNA, HepG2 cells, 14-day assay), 38 µM. The “MitDNA Content (% of control)” value in data set [3] (human, 14 days, 1 μM) is 57 (35-93) % of control; in data set [3] (human, 14 days, 10 μM), 78 (69-89) % of control; in data set [3] (human, 14 days, 50 μM), 200 (136-278) % of control. For the same molecule, in data set [1] (Huh-7, HCV 1b replicon, numeric EC90, read-out: EC90 (μM or letter value) or % inhib HCV), the 90% effect concentration (EC90) was 0.8 µM. The EC50 in data set [1] (Huh-7, HCV 1b replicon, numeric, read-out: EC50 (μM or letter value)) turned out to be 0.2 µM. Moreover, the “intracellular SOF” value in the data set with Huh-7 cells (Huh-7 cells, 50 μM, 4 hr) is listed as 206.4 ± 3.2 pmol/10^6 cells. In addition, the “intracellular SOF-nuc” value with Huh-7 cells (Huh-7 cells, 50 μM, 4 hr) is listed as “BLOQ”. Moreover, the “2′-F, 2′Me UMP” value in data set [8] is “BLOQ”. In data set [8], the MI entry is on record as “BLOQ”.
